Measured values: US20210354140A1, “MICROFLUIDIC DEVICE AND USES THEREOF” (Bar Ilan University, priority 2020, published 2021)
Entries after “also recorded” stand apart in the source; their conditions may differ. Read-outs that look alike come from different tables or passages of the source.

What was measured:
[1] = test system: MCF-7 cells; experiment: MCF-7 cell response to a printed drug array, live/dead assay; format: cell-based; conditions: drugs spotted at 0, 0.1, 0.5, 0.7 and 1 mM; 2 hours incubation
Protocol: MCF7 cells response to 4 different drugs (Doxorubicin, Docetaxel, Pacletoxel, Methotrexate) at 4 different concentrations (0.1-1 mM). The drugs were printed on the slide and aligned into drug chamber inside the device. Live/dead assay was performed by double staining dead cells (Red) and live cells (Green).
(§1) The evaluation of anticancer drug effect on cells vitality was conducted in two steps. First, Docetaxel was used, which is one of the first-line chemotherapies used for metastatic breast cancer. Docetaxel, at different concentrations (1 uM, 10 uM and 100 uM), was flown into the microfluidics device for 5 minutes, following the cell accommodation period. Then the cells, were incubated with the drug for 2 hours. Cell feeding, by diffusion, commenced until the experiment was finished. Live/dead assay was applied up to 48 hours following drug administration. After the evaluation of cells response to one drug-Docetaxel the effect was tested of an array of drugs on the cells. The drugs were printed on a glass substrate and their spotted array was aligned to the drug chamber in the microfluidic device.
(§2) Custom assays for cells vitality evaluation were applied. Living cells were stained with Calcein-AM (50 ng/ul in DMEM medium) (Biotest, Israel) which colors the cytoplasm. Dead cells were stained with Propidium Iodide (PI) (Sigma, Israel) (15 ng/ul in DMEM medium), coloring the nuclear. All cells nuclear (live and dead) were stained by Hoechst 33342 stain (Bis-Benzimide H3342 trihydro-chloride, Sigma, Israel) (10 ng/μl in DMEM medium). A solution of all three dyes was prepared and flowed within the chip. The cells were washed with the solution for 20 min at a pressure of 2 psi. Following dyes application, the controlled valves were closed and the device was incubated for 30 min at 37° C. 5% CO2 to allow cells staining. Next, the valves were opened and the device was washed by phenol-free DMEM medium for 15 min, to remove colures remains.
The drugs, Doxorubicin (Doxorubicin hydrochloride, Tocirs, USA), Docetaxel, Paclitaxel Methotrexate (drugs were supplied with the courtesy of Dr. Levanon, The institute of Oncology, Chaim Sheba Medical Center, Israel), were spotted on a microscope slide at 5 different concentrations (0, 0.1, 0.5, 0.7 and 1 mM) and then covered with the microfluidic device, encompassing the thy drugs inside the drug chamber. Cells were seeded on the device and cultured for 2 hours. Then the valve blocking the drug chamber was opened and the drugs were flooded and allowed to diffuse out and incubated with the cells for 2 hours. A different response was observed dynamics to the different drugs, expressed by different mortality rates.

[2] = test system: pleural effusion samples from Non-small cell lung carcinoma patients; experiment: CSRA of patient pleural effusion samples, Propidium iodide cell viability; format: cell-based, human; conditions: 15 μM, 24-hour exposure; samples from 8 patients
Protocol: The drug response of pleural effusion samples taken from 8 Non-small cell lung carcinoma patients was tested in a preliminary experiment. […] The genomic analysis could not predict however development of resistance. For each of the samples, the cells were first uploaded into the chip for a 24-hour acclimation period after which the cells were exposed different drugs. The 24 hours response to two […], Alectinib and Crizotinib (15 μM) is shown herein. Cell viability was measured using Propidium iodide, which dyes the nuclei of dead cells (magenta). It was known that the biopsies originated from patients that were treated with Alectinib and Crizotinib, however their response to each treatment was not known nor the order in which the drugs were administered, in order to avoid any sort of confirmation bias when collecting and analyzing the data. The moment when the pleural effusions were collected during the treatments was neither known. Crizotinib, like Alectinib is an ALK inhibitor and works by operating as a competitive inhibitor to the ATP binding site of the tyrosine kinase enzyme that the ALK gene codes for and in doing so prevents its carcinogenic activity. […] At the end of the 24-hour exposure period, the data from the experiments was analyzed and calculated to determine the survival and or mortality rate of the cells.

[3] = test system: Non-small cell lung carcinoma patients; conditions: patients first treated with Alectinib, then replaced with Crizotinib; cited from earlier work
[4] = test system: MCF-7 cells; experiment: Doxorubicin treatment specificity in microfluidic device, MCF-7 cells; conditions: drug sensitive MCF7 cells; 24 hours of 10 μM doxorubicin
[5] = test system: MCF-7/dx (Doxorubicin resistant cells); experiment: Doxorubicin treatment specificity in microfluidic device, Doxorubicin resistant MCF-7/dx cells; conditions: drug resistant MCF7/Dx cells; 24 hours of 10 μM doxorubicin
[6] = test system: 293T cells; experiment: Live/dead staining assay in microfluidic device after Docetaxel exposure, 293T cells; format: cell-based; set-up: dose or concentration left out as unconfirmed; conditions: Docetaxel for 2 hours, 48 hours after seeding; live/dead assay at T0, 5, 24, 48 hours
Protocol: as §1, with “Docetaxel, at different concentrations (1 uM, 10 uM and 100 uM), was flown into the microfluidics device for 5 minutes, following the cell accommodation period.” left out
Custom assays for cells vitality evaluation were applied. […]
(§3) Statistical analysis was carried up using Microsoft Excel 2016 Data Analysis package and RStudio (RStudio Team (2015). RStudio: Integrated Development for R. RStudio, Inc., Boston, Mass.) Images were processed with NIS Elements Analysis software (ver. 40.20.01 Nikon, USA). For all experiments, variables are expressed as traditional boxplots, presenting median, maximum, minimum and Interquartiie range (IQR). […] In all cases, significance was defined as p<0.05, one way analysis of variance was evaluated using Anova, while multiple comparison was evaluated using Tukey's range test (post-hoc Anova analysis). […]

[7] = test system: dispersed cells and cell clusters; experiment: cells; format: cell-based
Protocol: Cells were exposed twice to Docetaxel once at a concentration of 1 μM and 24 hours later re-exposed to 10 μM Docetaxel for a period of 2 hrs. […] P value was determined using two-tail T-test (n=43).
FIG. 9A: Cells were exposed twice to Docetaxel once at a concentration of 1 μM and 48 hours later a second exposure to 10 μM. Images were taken 24 hours after the second drug exposure T24 (which is 120 hours post seeding).
Cells were exposed to 10 μM Docetaxel for 2 hours. The dynamic of cell death was detected using PI staining. […] Monitoring proceeded up to 28 hours.
as §2, with “Next, the valves were opened and the device was washed by phenol-free DMEM medium for 15 min, to remove colures remains.” left out

[8] = test system: cells in microfluidic cell chamber; experiment: Dynamics of cell death following Docetaxel treatment (FIG. 6), PI staining in cell chambers; format: cell-based; conditions: Docetaxel 10 uM, 2 hours exposure, 50 drug chambers vs 50 control chambers
Protocol: FIG. 6A: Live images of a representative cell chamber before (T0) and after (up to 20 hours) exposure to Docetaxel (10 uM). Dead cells were stained with Red (PI).
FIG. 6B: Box plot analysis of the mortality rate (%) of cells following 2 hours of exposure to Docetaxel (10 uM)—T0. Nearly 100 cells chambers were analyzed, 50 following drug exposure and 50 control—no drug exposure. […] Two tail paired T-test analysis were conducted.
Custom assays for cells vitality evaluation were applied. Living cells were stained with Calcein-AM (50 ng/ul in DMEM medium) (Biotest, Israel) which colors the cytoplasm. Dead cells were stained with Propidium Iodide (PI) (Sigma, Israel) (15 ng/ul in DMEM medium), coloring the nuclear. […]
Statistical analysis was carried up using Microsoft Excel 2016 Data Analysis package and RStudio (RStudio Team (2015). RStudio: Integrated Development for R. RStudio, Inc., Boston, Mass.) Images were processed with NIS Elements Analysis software (ver. 40.20.01 Nikon, USA). For all experiments, variables are expressed as traditional boxplots, presenting median, maximum, minimum and Interquartiie range (IQR). […] In all cases, significance was defined as p<0.05, one way analysis of variance was evaluated using Anova, while multiple comparison was evaluated using Tukey's range test (post-hoc Anova analysis).

[9] = test system: MCF7 cells; experiment: Live/dead staining assay in microfluidic device after Docetaxel exposure, MCF7 cells; format: cell-based; set-up: dose or concentration left out as unconfirmed; conditions: Docetaxel for 2 hours, 48 hours after seeding; live/dead assay at T0, 5, 24, 48 hours; n=47; vs untreated control
Protocol: The cells were then dissociated from the culture dish at 60-70% confluence with 0.25% trypsin in PBS, resuspended in DMEM containing 10% FBS and introduced into the microfluidic device. […] MCF7/Dx cell line was grown in the presence of 10 ^M doxorubicin and cultured for 4 weeks in drug-free medium prior to use.
The evaluation of anticancer drug effect on cells vitality was conducted in two steps. First, Docetaxel was used, which is one of the first-line chemotherapies used for metastatic breast cancer. […] Then the cells, were incubated with the drug for 2 hours. Cell feeding, by diffusion, commenced until the experiment was finished. Live/dead assay was applied up to 48 hours following drug administration. […]
as §3

[10] = in vivo; cited from earlier work

With CN(Cc1cnc2nc(N)nc(N)c2n1)c1ccc(C(=O)N[C@@H](CCC(=O)O)C(=O)O)cc1 [Methotrexate] the “dose dependence of sensitivity of MCF-7 cells” value (shortened to “dose dependence”) [1] was “dose dependence sensitivity was observed” and the “mortality rate of MCF-7 cells versus drug dose” value [1] was “mortality rate increased starting from the lower dose of drug (0.1 mM) (p<0.05)”.

For CCc1cc2c(cc1N1CCC(N3CCOCC3)CC1)C(C)(C)c1[nH]c3cc(C#N)ccc3c1C2=O [Alectinib], the “24 hours drug response of patient samples (resistance / sensitivity)” value [2] is given as “All samples were resistant; also recorded: all the patients were resistant” and the “patient response to treatment (patient history)” value [3] is given as “developed resistance”.

In the case of COc1cccc2c1C(=O)c1c(O)c3c(c(O)c1C2=O)C[C@@](O)(C(=O)CO)C[C@@H]3O[C@H]1C[C@H](N)[C@H](O)[C@H](C)O1 [Doxorubicin], the “cells showing morphological features of apoptotic/necrotic processes” value [4] is reported as “about 98%”, the “dose dependence” value [1] is reported as “dose dependence sensitivity was observed” and the “mortality rate of MCF-7 cells versus drug dose” value [1] is reported as “mortality rate increased starting from the lower dose of drug (0.1 mM) (p<0.05)”. The “morphological features of apoptotic/necrotic processes” value [5] was “almost absent”.

In the case of C[C@@H](Oc1cc(-c2cnn(C3CCNCC3)c2)cnc1N)c1c(Cl)ccc(F)c1Cl [Crizotinib], the “24 hours drug response of patient samples (resistance / sensitivity)” value [2] is listed as “varying sensitivity; also recorded: varying from resistance to medium or high response” and the “patient response to treatment (patient history)” value [3] is listed as “the response was different between patients”.

For CC(=O)O[C@H]1C(=O)[C@@]2(C)[C@H]([C@H](OC(=O)c3ccccc3)[C@]3(O)C[C@H](OC(=O)[C@H](O)[C@@H](NC(=O)c4ccccc4)c4ccccc4)C(C)=C1C3(C)C)[C@]1(OC(C)=O)CO[C@@H]1C[C@@H]2O [Paclitaxel], the “dose dependence” value [1] was “dose dependence sensitivity was observed” and the “mortality rate of MCF-7 cells versus drug dose” value [1] was “mortality rate increased starting from the lower dose of drug (0.1 mM) (p<0.05)”.

In the case of CC(=O)O[C@@]12CO[C@@H]1C[C@H](O)[C@@]1(C)C(=O)[C@H](O)C3=C(C)[C@@H](OC(=O)[C@H](O)[C@@H](NC(=O)OC(C)(C)C)c4ccccc4)C[C@@](O)([C@@H](OC(=O)c4ccccc4)[C@H]21)C3(C)C [Docetaxel], the “mortality rate of 293T cells post drug exposure” value [6] is reported as “increase in mortality rate after 5 hrs (p<0.05) with no further deterioration”, the mortality at 1 µM ([7]; read-out: Cluster mortality rate (Mean±S.E)) is reported as 33 ± 5% and the mortality at 1 µM ([7]; read-out: mortality rate of the dispersed cells population (Mean±S.E)) is reported as 65 ± 6%. The “dose dependence” value [1] was “dose dependence sensitivity was observed”, the “mortality rate of MCF-7 cells versus drug dose” value [1] was “mortality rate increased starting from the lower dose of drug (0.1 mM) (p<0.05)” and the “cells vitality immediately after 2 hrs of drug exposure (T0 drug)” value [8] was “no differences in cells vitality”. For the same compound, the “cells mortality rate twenty hours post cultivation” value ([8]; 20 hours) was “following drug exposure a further significant increase was observed (p<0.05)” and the “mortality rate of MCF7 cells post drug exposure” value [9] was “significantly increased (p<0.05) within 5 hours post drug exposure with no further increase in mortality rate up to 48 hours”.

In the case of “Infliximab: purified, recombinant DNA-derived chimeric human-mouse IgG monoclonal antibody against TNF-α”, the serum half-life [10] is listed as 228 h and the “time detectable in serum after infusion treatment” value [10] is listed as 8 weeks.
